Legend:
MCF-7 = experiment: Cytotoxicity assay (SRB), MCF-7; assay type: cell-based; details: Homo sapiens, MCF7, 72 h, MCF-7 cells, SRB, three days; read-out: In Vitro Cellular Activity IC50 MCF-7
How it was run: (§1)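 Protein staining with sulforhodamine B after cold TCA fixation served as the survival endpoint (A540, relative to untreated cells). Before staining, cells were incubated with compound at 37 °C, 7% CO2 for 3 days, or 6 days for BT474.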

HCT-116 = experiment: Cytotoxicity assay (SRB), HCT-116; assay type: cell-based; details: Homo sapiens, HCT-116, 72 h, HCT116 cells, SRB, three days; read-out: In Vitro Cellular Activity IC50 HCT116
How it was run: as §1

SK-UT-1B = experiment: In Vitro Cellular Activity (Table III), SK-UT-1B; assay type: cell-based; details: Homo sapiens, Skut1B; SK-UT-1B cells
LoVo = experiment: Cytotoxicity assay (SRB), LoVo; assay type: cell-based; details: Homo sapiens, LoVo, 72 h, LoVo cells, SRB, three days; read-out: In Vitro Cellular Activity IC50 LOVO
How it was run: as §1

BT474 = experiment: Cytotoxicity assay (SRB), BT474; assay type: cell-based; details: Homo sapiens, BT-474, 144 h, BT474 cells, SRB, 6 days; read-out: In Vitro Cellular Activity IC50 BT474
How it was run: as §1

cyclin D1/cdk 4 enzyme = target: T1, cyclin D1/cdk 4 enzyme (Homo sapiens, UniProt P11802); experiment: CDK4 ELISA kinase assay (phospho-Rb ser 795 detection); assay type: biochemical; details: In Vitro Enzyme Assays, 200 μM ATP, read-out: CDK4 IC50
T1 construct: made in house; host or cells: Sf9 insect cells, recombinant baculovirus
How it was run: (§2)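 GST-Rb C-terminal fragment coated on plates; partially purified Sf9-expressed cyclin D1/CDK4, cyclin E/CDK2 or cyclin B/CDK1 with 200 μM ATP, pH 7.5 HEPES/MgCl2 buffer, 1 h at 30 °C; screen compound final 10 μg/ml. Phospho-Rb Ser795 detected by antibody ELISA (TMB, A450); % of control, IC50 from background-subtracted inhibition curves.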

cyclin B/CDK1 enzyme = target: T2, cyclin B/CDK1 enzyme (Homo sapiens, UniProt P06493); experiment: CDK1 ELISA kinase assay (phospho-Rb ser 795 detection); assay type: biochemical; details: In Vitro Enzyme Assays, read-out: CDK1 IC50
T2 construct: purchased New England BioLabs; host or cells: Sf9 insect cells, recombinant baculovirus
How it was run: as §2

cyclin E/CDK2 enzyme = target: T3, cyclin E/CDK2 enzyme (Homo sapiens, UniProt P24941); experiment: CDK2 ELISA kinase assay (phospho-Rb ser 795 detection); assay type: biochemical; details: In Vitro Enzyme Assays, read-out: CDK2 IC50
T3 construct: made in house; host or cells: Sf9 insect cells, recombinant baculovirus
How it was run: as §2

T2 sequence (P06493 whole entry): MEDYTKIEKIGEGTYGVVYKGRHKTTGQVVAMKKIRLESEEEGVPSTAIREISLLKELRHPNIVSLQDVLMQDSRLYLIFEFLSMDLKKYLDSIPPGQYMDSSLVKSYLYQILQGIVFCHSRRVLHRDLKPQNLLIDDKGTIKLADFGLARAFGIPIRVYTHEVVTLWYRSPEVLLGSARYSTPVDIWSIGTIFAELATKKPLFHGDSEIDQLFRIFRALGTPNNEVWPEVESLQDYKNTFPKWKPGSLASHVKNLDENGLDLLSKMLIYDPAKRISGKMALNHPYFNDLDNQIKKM
T2 sequence (P14635 whole entry partner): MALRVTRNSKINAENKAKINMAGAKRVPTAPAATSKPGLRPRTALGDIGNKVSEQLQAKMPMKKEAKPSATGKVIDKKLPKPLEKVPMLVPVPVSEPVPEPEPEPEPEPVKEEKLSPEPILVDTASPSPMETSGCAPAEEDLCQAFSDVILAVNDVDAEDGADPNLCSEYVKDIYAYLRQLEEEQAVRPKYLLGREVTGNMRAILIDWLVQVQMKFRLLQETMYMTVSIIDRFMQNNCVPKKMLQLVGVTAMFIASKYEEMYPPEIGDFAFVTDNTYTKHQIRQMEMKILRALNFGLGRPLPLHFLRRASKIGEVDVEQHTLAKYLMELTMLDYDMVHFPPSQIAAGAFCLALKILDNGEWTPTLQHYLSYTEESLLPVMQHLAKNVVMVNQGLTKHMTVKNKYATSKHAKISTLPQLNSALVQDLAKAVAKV
T1 sequence (P11802 whole entry, species assumed): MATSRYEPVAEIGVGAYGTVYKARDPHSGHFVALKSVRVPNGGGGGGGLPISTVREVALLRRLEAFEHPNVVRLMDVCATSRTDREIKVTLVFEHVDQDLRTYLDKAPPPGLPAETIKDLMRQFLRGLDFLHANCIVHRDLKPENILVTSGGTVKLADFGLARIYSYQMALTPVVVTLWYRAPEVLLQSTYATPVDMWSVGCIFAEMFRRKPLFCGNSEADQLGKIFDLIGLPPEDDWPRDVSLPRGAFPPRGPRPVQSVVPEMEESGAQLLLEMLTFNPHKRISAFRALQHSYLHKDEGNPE
T1 sequence (P24385 whole entry partner, species assumed): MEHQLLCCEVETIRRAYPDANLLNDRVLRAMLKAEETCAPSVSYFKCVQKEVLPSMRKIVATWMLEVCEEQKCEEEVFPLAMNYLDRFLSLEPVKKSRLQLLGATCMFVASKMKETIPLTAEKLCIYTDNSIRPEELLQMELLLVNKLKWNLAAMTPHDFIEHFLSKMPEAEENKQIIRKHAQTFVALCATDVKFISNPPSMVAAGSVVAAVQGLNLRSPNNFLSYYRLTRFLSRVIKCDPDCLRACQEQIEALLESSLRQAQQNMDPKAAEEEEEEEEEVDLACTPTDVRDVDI

Row | melting point | IC50 (SK-UT-1B) [µM] | IC50 (cyclin D1/cdk 4 enzyme) [µM] | IC50 (cyclin B/CDK1 enzyme) [µM] | IC50 (cyclin E/CDK2 enzyme) [µM] | SMILES | IC50 (MCF-7) [µM] | IC50 (HCT-116) [µM] | IC50 (LoVo) [µM] | IC50 (BT474) [µM]
1 | 129 to 130 °C | 10 | 1.1 | > 50 | > 50 | COCC1CCCN1Cc1ccc(N/C=C2\C(=O)NC(=O)c3ccc(Br)cc32)cc1 (stereo in doubt) [Example 39] | 6.3 | 7.5 | 9.4 | 7.9
2 | 224 to 225 °C | 16.3 | 5.15 | > 26 | 26 | O=C1NC(=O)c2ccccc2/C1=C/Nc1ccc(CN2CCC(O)CC2)cc1 [Example 23, (4Z)-4-[({4-[(4-Hydroxypiperidin-1-yl)methyl]phenyl}amino)methylene]isoquinolin-1,3(2H,4H)-dione] | 8.7 | 10.5 |  | 
3 | 222 to 225 °C | 7.8 |  | > 50 |  | O=C1NC(=O)c2ccc(Br)cc2/C1=C/Nc1ccc(CN2CCCCC2)cc1 [Example 24, (4Z)-6-Bromo-4-{[(4-piperidin-1-ylmethyl)phenyl]amino}methyleneisoquinoline-1,3(2H,4H)-dione] | 3.1 | 5 | 6 | 4.8
4 | 198 to 200 °C | 6.1 | 4.3 | > 27 | > 27 | O=C1NC(=O)c2ccccc2/C1=C/Nc1ccc(CN2CCCCCC2)cc1 [Example 26, (4Z)-4-({[4-(Azepan-1-ylmethyl)phenyl]amino}methylene)isoquinoline-1,3(2H,4H)-dione] | 8 | 7.3 |  | 
5 | 260 to 261 °C | 33 |  |  |  | COc1cc(CN/C=C2\C(=O)NC(=O)c3ccc(Br)cc32)ccc1O [Example 28, (4Z)-6-Bromo-4-{[(4-hydroxy-3-methoxybenzyl)amino]methylene}isoquinoline-1,3(2H,4H)-dione] | > 50 | 28 | > 50 | 39
6 | 219 to 220 °C | 15 |  |  |  | CC(C)(C)OC(=O)N1CCN(Cc2ccc(N/C=C3\C(=O)NC(=O)c4ccccc43)cc2)CC1 [Example 34] | 38 | 14 | > 50 | 25
7 | 170 to 171 °C | 11 |  |  |  | O=C1NC(=O)c2ccc(Br)cc2/C1=C/Nc1ccccc1CN1CCCCC1 [Example 41, (4Z)-6-Bromo-4-({[2-(piperidin-1-ylmethyl)phenyl}amino)methylene]isoquinolin-1,3(2H,4H)-dione] | 13 | 39 | 49 | 25
8 | 242 to 243 °C | 3.5 |  |  |  | O=C1NC(=O)c2cc(Br)ccc2/C1=C/Nc1ccc(CN2CCCCC2)cc1 [Example 44, (4Z)-7-Bromo-4-({[4-(Piperidin-1-ylmethyl)phenyl]amino}methylene)isoquinoline-1,3(2H,4H)-dione] | 6.6 | 3.6 | 4 | 4.6

Second part, the compound before the results:

Row | SMILES | melting point | IC50 (SK-UT-1B) [µM] | IC50 (cyclin D1/cdk 4 enzyme) [µM] | IC50 (cyclin B/CDK1 enzyme) [µM] | IC50 (cyclin E/CDK2 enzyme) [µM] | IC50 (MCF-7) [µM] | IC50 (HCT-116) [µM] | IC50 (LoVo) [µM] | IC50 (BT474) [µM]
9 | COc1ccc(N/C=C2\C(=O)NC(=O)c3ccccc32)cc1 [Example 1, (4Z)-4-{[(4-Methoxyphenyl)amino]methylene}isoquinoline-1,3(2H,4H)-dione] | 150 to 151 °C | > 36 | 38 | > 36 | 18.9 | 19 | 29 | 30 | 43
10 | CN1CCN(c2ccc(N/C=C3\C(=O)NCc4ccccc43)cc2)CC1 [Example 2, (4Z)-4-({[4-(4-Methyl-1-piperazinyl)phenyl]amino}methylene)-1,4-dihydro-3(2H)-isoquinolinone] | 186 to 187 °C (dec.) | 4.3 | 12.1 | > 29 | > 29 | 6.7 | 7.4 | 7.8 | 21.5
11 | O=C1NC(=O)c2ccccc2/C1=C/Nc1ccc(CCN2CCCC2)cc1 [Example 5, (4Z)-4-({[4-(2-Pyrrolidin-1-ylethyl)phenyl]amino}methylene)isoquinoline-1,3(2H,4H)-dione] | 224 to 225 °C | 10.2 | 10.2 | > 28 | > 28 | 8 | 10.8 |  | 
12 | O=C1NC(=O)c2ccccc2/C1=C/Nc1ccc2ncccc2c1 [Example 8, (4Z)-4-[(Quinolin-6-ylamino)methylene]isoquinoline-1,3(2H,4H)-dione] | 277 to 278 °C | 8.9 | > 50 | > 32 | > 32 | > 50 | > 50 | > 50 | > 50
13 | O=C1NC(=O)c2ccccc2/C1=C\c1ccc(O)cc1 [Example 11, (4E)-4-(4-hydroxybenzylidene)isoquinoline-1,3(2H,4H)-dione] | 242 to 243 °C | > 36 | > 50 | > 37 | > 37 | 18 | 2.3 | 6.8 | > 50
14 | O=C1NC(=O)c2ccccc2/C1=C/Nc1ccc(CN2CCCCC2)cc1 [Example 13, (4Z)-4-({[4-(Piperidin-1-ylmethyl)phenyl]amino}methylene)isoquinoline-1,3(2H,4H)-dione] | 185 to 186 °C | 11.3 | 7.9 | > 28 |  | 7.3 | 8.6 | 15 | 27
15 | O=C1NC(=O)c2ccccc2/C1=C/Nc1cccc(CN2CCCCCC2)c1 [Example 17, (4Z)-4-({[3-(Azepan-1-ylmethyl)phenyl]amino}methylene)isoquinoline-1,3(2H,4H)-dione] | 116 to 117 °C | 16 |  |  |  | 20 | 14 | 19 | 30
16 | O=C1NC(=O)c2ccccc2/C1=C/Nc1cccc(CN2CCCC2)c1 [Example 18, (4Z)-4-({[3-(Pyrrolidin-1-ylmethyl)phenyl]amino}methylene)isoquinoline-1,3(2H,4H)-dione] | 172 to 173 °C | 15.8 |  |  |  | 15 | 15 | 23 | 31
17 | CN1CCN(Cc2ccc(N/C=C3\C(=O)NC(=O)c4ccccc43)cc2)CC1 [Example 20] | 231 to 232 °C | 18.5 | 6.7 | > 26 |  | 14 | 10 |  | 
18 | O=C1NC(=O)c2ccccc2/C1=C/Nc1ccc(-c2ccccc2)cc1 [Example 21, (4Z)-4-[(1,1′-Biphenyl-4-ylamino)methylene]isoquinoline-1,3(2H,4H)-dione] | 261 to 262 °C | 19.7 |  |  |  | > 50 | > 50 | > 50 | > 50
